According to BindingDB's records for doi:10.1016/0960-894X(95)00024-N (1995):

Assay: Concentration required for the in vitro inhibition of Acyl coenzyme A:cholesterol acyltransferase (ACAT) in intestinal microsomes isolated from cholesterol-fed rabbits

Work on `CCCCCCCCCCCCCCCn1nnc(C(NC(=O)c2c(C)cccc2C)c2ccccc2)n1` (configuration not stated) [2,6-Dimethyl-N-[(2-pentadecyl-2H-tetrazol-5-yl)-phenyl-methyl]-benzamide] yielded an IC50 of 440 nM.

For `CCCCCCCn1nnc(C(NC(=O)c2c(C)cccc2C)c2ccccc2)n1` (configuration not stated) [N-[(2-Heptyl-2H-tetrazol-5-yl)-phenyl-methyl]-2,6-dimethyl-benzamide], the IC50 was 3700 nM.
